One may read the EC50 as the midpoint of the concentration-response curve.

The source made the active and inactive calls. The rule behind the calls is not given here. Numbered stars: 1 amine (or outer) side, 2 acyl side, 3 side chain; on linkers, the order of the positions; unused ones are H or OH. Square brackets hold non-standard residues; d marks the D form. Peptide text beside a SMILES is read from it. Orn(Me) = CN(CCC[C@H](N[*:1])C(=O)[*:2])[*:3]; Cha = N[C@@H](CC1CCCCC1)C(=O)O

We go through 23 compounds from ChEMBL document CHEMBL1177720, “Selective hexapeptide agonists and antagonists for human complement C3a receptor” (J Med Chem, 2010).

The target of test [1] is T1, C5a anaphylatoxin chemotactic receptor 1 (Homo sapiens, UniProt P21730).
T1 sequence (P21730 whole entry): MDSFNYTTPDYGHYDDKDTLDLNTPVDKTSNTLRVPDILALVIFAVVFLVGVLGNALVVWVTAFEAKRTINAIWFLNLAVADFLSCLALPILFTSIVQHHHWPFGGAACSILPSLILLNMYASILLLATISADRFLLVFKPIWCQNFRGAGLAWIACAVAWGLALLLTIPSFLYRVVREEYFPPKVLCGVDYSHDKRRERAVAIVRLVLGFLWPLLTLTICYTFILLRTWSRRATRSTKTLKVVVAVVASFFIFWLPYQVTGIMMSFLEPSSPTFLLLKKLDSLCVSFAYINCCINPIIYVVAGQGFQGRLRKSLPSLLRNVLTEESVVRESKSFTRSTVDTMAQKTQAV
Nature of the test: Displacement of [125I-C5a] from C5a receptor in human PBMC by scintillation counting. On the technique in general: In a radioligand displacement assay an active substance lowers the binding of a labelled ligand.

Test [2] concerns the target T2, C3a anaphylatoxin chemotactic receptor (Homo sapiens, UniProt Q16581).
T2 sequence (Q16581 whole entry): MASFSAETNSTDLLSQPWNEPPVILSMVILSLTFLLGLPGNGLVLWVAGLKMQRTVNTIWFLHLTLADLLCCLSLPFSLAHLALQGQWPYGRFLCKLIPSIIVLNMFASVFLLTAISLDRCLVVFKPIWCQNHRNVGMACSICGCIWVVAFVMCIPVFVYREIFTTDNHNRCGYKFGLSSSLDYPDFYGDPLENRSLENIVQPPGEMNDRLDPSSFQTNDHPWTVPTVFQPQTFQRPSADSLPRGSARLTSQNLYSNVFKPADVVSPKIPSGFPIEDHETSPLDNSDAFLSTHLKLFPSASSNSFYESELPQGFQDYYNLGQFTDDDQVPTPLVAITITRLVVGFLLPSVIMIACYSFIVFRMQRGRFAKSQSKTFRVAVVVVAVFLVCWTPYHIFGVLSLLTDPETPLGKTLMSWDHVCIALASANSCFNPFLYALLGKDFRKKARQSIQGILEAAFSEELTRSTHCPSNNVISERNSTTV
In words: Agonist activity at human C3a receptor in human U937 cells assessed as induction of intracellular calcium release. In kind it is functional, cell-based, U-937. To be noted: read-out: EC50. (In general: Calcium flux is commonly read through the fluorescence of an indicator in the cells.)

For test [3], the target named is T2, C3a anaphylatoxin chemotactic receptor. In words: Displacement of [125I-C3a] from C3a receptor in human PBMC by scintillation counting.
Test [4] has as its target T3, C5a anaphylatoxin chemotactic receptor 1 (Homo sapiens) (UniProt P21730).
T3 sequence (whole entry): T1 sequence (P21730 whole entry)
Nature of the test: Displacement of […] from C5a receptor in human PBMC at 1 mM by scintillation counting.

The target in test [5] is T4, C3a anaphylatoxin chemotactic receptor (Homo sapiens) (UniProt Q16581).
T4 sequence (whole entry): T2 sequence (Q16581 whole entry)
Nature of the test: Agonist activity at human C3a receptor in human U937 cells assessed as induction of intracellular calcium release at 1 mM. The format is functional, cell-based. To be noted: U-937.

In test [6] the target is T4, C3a anaphylatoxin chemotactic receptor (Homo sapiens). Nature of the test: Agonist activity at human C3a receptor in human U937 cells assessed as induction of intracellular calcium release at 10 uM. Conditions: U-937. The format is functional, cell-based.

`CSCC[C@H](NC(=O)[C@H](CC(=O)O)N(C)C(=O)[C@H](CCCCN)NC(=O)[C@H](Cc1ccccc1)NC(=O)[C@H](CO)NC(=O)[C@@H](N)Cc1ccc(O)cc1)C(=O)N1CCC[C@H]1C(=O)N[C@@H](CC(C)C)C(=O)N[C@H](C)C(=O)N[C@@H](CCCNC(=N)N)C(=O)O`: the values for the IC50 in test [1] and in test [3] (read-out: IC50) were 29000 nM and 740 nM, respectively. Further, the EC50 in test [2] was found to be 1400 nM.
Take `CC(C)C[C@H](NC(=O)[C@@H]1CCCN1C(=O)[C@H](Cc1c[nH]c2ccccc12)NC(=O)[C@@H](N)Cc1ccccc1)C(=O)N[C@@H](C)C(=O)N[C@@H](CCCNC(=N)N)C(=O)O` (H-FWPLAR-OH): in test [4], the outcome was inactive. Further, the EC50 in test [2] turned out to be 580 nM. The IC50 in test [3] (read-out: IC50) was found to be 274 nM.
For the compound `CC(C)C[C@H](NC(=O)[C@@H](N)Cc1ccccc1)C(=O)N[C@H](C(=O)N[C@@H](CO)C(=O)N[C@@H](C)C(=O)N[C@@H](CCCNC(=N)N)C(=O)O)[C@@H](C)O` (H-FLTSAR-OH), the outcome in test [4] and in test [5] was inactive. The IC50 in test [3] (read-out: IC50) worked out at 8200 nM.
As for `CC(C)C[C@H](NC(=O)[C@@H](NC(=O)[C@H](Cc1c[nH]c2ccccc12)NC(=O)[C@@H](N)Cc1c[nH]c2ccccc12)[C@@H](C)O)C(=O)N[C@@H](C)C(=O)N[C@@H](CCCNC(=N)N)C(=O)O` (H-WWTLAR-OH), in test [4], the outcome was inactive. Also, in test [2], the EC50 is 910 nM. The IC50 in test [3] (read-out: IC50) was determined as 244 nM.
For `CC(C)C[C@H](NC(=O)[C@@H](NC(=O)[C@H](Cc1ccc(O)cc1)NC(=O)[C@@H](N)Cc1ccccc1)[C@@H](C)O)C(=O)N[C@@H](C)C(=O)N[C@@H](CCCNC(=N)N)C(=O)O` (H-FYTLAR-OH), in that order: “inactive”, 4800 nM and 166 nM.
For `CSCC[C@H](NC(=O)[C@@H]1CCCN1C(=O)[C@H](CCCCN)NC(=O)[C@H](Cc1ccccc1)NC(=O)[C@H](CO)NC(=O)[C@@H](N)Cc1ccc(O)cc1)C(=O)N1CCC[C@H]1C(=O)N[C@@H](CC(C)C)C(=O)N(C)[C@H](C)C(=O)N[C@@H](CCCN=C(N)N)C(=O)O`, the IC50 was 2000 nM in test [1] and 13 nM in test [3] (read-out: IC50). Further, the EC50 in test [2] came to 130 nM.
For the compound `CC(C)C[C@H](NC(=O)[C@@H](NC(=O)[C@H](Cc1c[nH]c2ccccc12)NC(=O)[C@@H](N)Cc1ccccc1)[C@@H](C)O)C(=O)N[C@@H](C)C(=O)N[C@@H](CCCNC(=N)N)C(=O)O` (H-FWTLAR-OH), the result in test [4] was inactive. Further, in test [2], the EC50 stood at 370 nM. Besides, in test [3] (read-out: IC50), the IC50 amounted to 82 nM.
On to `CC[C@H](C)[C@H](NC(=O)[C@H](C)NC(=O)[C@H](CC(N)=O)NC(=O)[C@@H](NC(=O)[C@@H](NC(=O)[C@H](CCCNC(=N)N)NC(=O)[C@H](CCCCN)NC(=O)[C@H](C)NC(=O)[C@H](CCC(=O)O)NC(=O)[C@H](Cc1ccccc1)NC(=O)[C@H](C)NC(=O)[C@@H](NC(=O)[C@@H](NC(=O)[C@@H](N)Cc1c[nH]c2ccccc12)C(C)C)[C@@H](C)O)[C@@H](C)O)[C@@H](C)CC)C(=O)N[C@@H](Cc1c[nH]c2ccccc12)C(=O)O` (H-WVTAFEAKRTINAIW-OH), for which the IC50 in test [1] came out at 1700 nM; in test [3] (read-out: IC50) it was 1600 nM. The EC50 in test [2] came to 24000 nM.
Take `CC(C)C[C@H](NC(=O)CNC(=O)[C@H](CC(C)C)NC(=O)[C@@H](N)Cc1cnc[nH]1)C(=O)N[C@@H](C)C(=O)N[C@@H](CCCNC(=N)N)C(=O)O` (H-HLGLAR-OH): the result in test [4] was inactive. The EC50 in test [2] worked out at 3800 nM. In addition, the IC50 in test [3] (read-out: IC50) amounted to 5900 nM.
Turning to `CC(C)C[C@H](NC(=O)[C@@H]1CCCN1C(=O)[C@@H](N)Cc1c[nH]c2ccccc12)C(=O)N1CCC[C@H]1C(=O)N[C@@H](CCCNC(=N)N)C(=O)O` (H-WPLPR-OH), the result in test [4], in test [6] and in test [5] was inactive. The IC50 in test [3] (read-out: IC50) was 27000 nM; in test [3] (read-out: pIC50 (converted)) it was 31600 nM.
Consider `CC(C)C[C@H](NC(=O)CNC(=O)[C@H](CC(C)C)NC(=O)[C@H](CCCCN)NC(=O)[C@H](CO)NC(=O)[C@H](C)NC(=O)[C@H](CCCN=C(N)N)NC(=O)[C@H](Cc1ccc(O)cc1)NC(=O)[C@H](CCCCN)NC(=O)[C@H](CCCCN)NC(=O)CNC(=O)[C@H](Cc1c[nH]c2ccccc12)NC(=O)[C@@H](N)Cc1c[nH]c2ccccc12)C(=O)N[C@@H](C)C(=O)N[C@@H](CCCN=C(N)N)C(=O)O` (H-WWGKKYRASKLGLAR-OH), for which, in test [2], the concentration giving a half-maximal response (EC50) turned out to be 1300 nM. The IC50 in test [3] (read-out: IC50) was 2 nM.
For the compound `CC(C)C[C@H](NC(=O)[C@@H]1CCCN1C(=O)[C@H](CCCNC(=N)N)NC(=O)[C@@H](N)Cc1ccccc1)C(=O)N[C@@H](C)C(=O)N[C@@H](CCCNC(=N)N)C(=O)O` (H-FRPLAR-OH), the outcome in test [5] was inactive.
Same read-out and setting: next, `CNCCC[C@H](NC(=O)[C@@H](N)Cc1ccccc1)C(=O)N[C@H](C(=O)N[C@@H](CC(C)C)C(=O)N[C@@H](C)C(=O)N[C@@H](CCCNC(=N)N)C(=O)O)[C@@H](C)O` (H-F[Orn(Me)]TLAR-OH): “inactive”.
Regarding `CC(C)C[C@H](NC(=O)[C@H](C)NC(=O)[C@H](CC(C)C)NC(=O)[C@@H](N)Cc1cnc[nH]1)C(=O)N[C@@H](C)C(=O)N[C@@H](CCCNC(=N)N)C(=O)O` (H-HLALAR-OH), the result in test [4], in test [6] and in test [5] was inactive. Besides, in test [3] (read-out: IC50), the IC50 is 6300 nM.
For `CC(C)C[C@H](NC(=O)CNC(=O)[C@H](CC(C)C)NC(=O)[C@H](CCCCN)NC(=O)[C@H](CO)NC(=O)[C@H](C)NC(=O)[C@H](CCCNC(=N)N)NC(=O)[C@H](Cc1ccc(O)cc1)NC(=O)[C@H](CCCCN)NC(=O)[C@H](CCCCN)NC(=O)CNC(=O)[C@H](Cc1c[nH]c2ccccc12)NC(=O)[C@@H](N)Cc1c[nH]c2ccccc12)C(=O)N[C@@H](C)C(=O)N[C@@H](CCCNC(=N)N)C(=O)O` (H-WWGKKYRASKLGLAR-OH), in test [4], the result was inactive.
Take `CC(C)C[C@H](NC(=O)[C@@H]1CCCN1C(=O)[C@H](CCCCN)NC(=O)[C@@H](N)Cc1ccccc1)C(=O)N[C@@H](CC1CCCCC1)C(=O)N[C@@H](CCCNC(=N)N)C(=O)O` (H-FKPL[Cha]R-OH): the outcome in test [5] was inactive.
Turning to `CC(C)C[C@H](NC(=O)CNC(=O)[C@H](CC(C)C)NC(=O)[C@@H](N)Cc1ccccc1)C(=O)N[C@@H](C)C(=O)N[C@@H](CCCNC(=N)N)C(=O)O` (H-FLGLAR-OH), the result in test [4] was inactive. In addition, the EC50 in test [2] worked out at 520 nM. Further, in test [3] (read-out: IC50), the IC50 turned out to be 157 nM.
For the compound `CC(C)C[C@H](NC(=O)[C@H](Cc1ccccc1)NC(=O)[C@H](CCCCN)NC(=O)[C@@H](N)Cc1ccccc1)C(=O)N[C@@H](C)C(=O)N[C@@H](CCCNC(=N)N)C(=O)O` (H-FKFLAR-OH), the result in test [5] was inactive.
Take `CC(C)C[C@H](NC(=O)[C@@H]1CCCN1C(=O)[C@H](CCC(=O)O)NC(=O)[C@@H](N)Cc1ccccc1)C(=O)N[C@@H](C)C(=O)N[C@@H](CCCNC(=N)N)C(=O)O` (H-FEPLAR-OH): the outcome in test [5] was inactive.
In the case of `CC(C)C[C@H](NC(=O)[C@@H](NC(=O)[C@H](CC(C)C)NC(=O)[C@@H](N)Cc1ccccc1)[C@@H](C)O)C(=O)N[C@@H](C)C(=O)N[C@@H](CCCNC(=N)N)C(=O)O` (H-FLTLAR-OH), in test [4], the result was inactive. For the same compound, in test [2], the EC50 came to 320 nM. For the same compound, the IC50 in test [3] (read-out: IC50) was found to be 42 nM.
For the compound `CC(C)C[C@H](NC(=O)[C@@H]1CCCN1C(=O)[C@H](CCCCN)NC(=O)[C@@H](N)Cc1ccccc1)C(=O)N[C@@H](Cc1ccccc1)C(=O)N[C@@H](CCCNC(=N)N)C(=O)O` (H-FKPLFR-OH), in test [5], the outcome was inactive.
In the case of `C[C@H](NC(=O)[C@H](Cc1ccccc1)NC(=O)[C@@H]1CCCN1C(=O)[C@H](CCCCN)NC(=O)[C@@H](N)Cc1ccccc1)C(=O)N[C@@H](CCCNC(=N)N)C(=O)O` (H-FKPFAR-OH), the result in test [5] was inactive.
Turning to `CC[C@H](C)[C@H](NC(=O)[C@@H](N)Cc1ccccc1)C(=O)N1CCC[C@H]1C(=O)N[C@@H](CC(C)C)C(=O)N[C@@H](C)C(=O)N[C@@H](CCCNC(=N)N)C(=O)O` (H-FIPLAR-OH), the outcome in test [4] was inactive. Further, in test [2], the EC50 came out at 950 nM. The IC50 in test [3] (read-out: IC50) was 0.18 nM; in test [3] (read-out: pIC50 (converted)), 229 nM.
